Source: patent US8338565B2, “Macrocyclic compounds for inhibition of tumor necrosis factor alpha” (Ensemble Therapeutics Corporation, priority 2008, dated 2012)
Like-named read-outs stand apart in the source and are kept apart here. Numbered stars: 1 amine (or outer) side, 2 acyl side, 3 side chain; on linkers, the order of the positions; unused ones are H or OH. Bridge positions count the residues as written; N and C are the ends. Square brackets hold non-standard residues; d marks the D form. Peptide text beside a SMILES is read from it. Tartaroyl(2R,3R-(OAc)2) = CC(=O)O[C@@H](C(=O)[*:1])[C@@H](OC(C)=O)C(=O)[*:2]; Phe(4-(2-MeO-Ph)) = COc1ccccc1-c1ccc(C[C@H](N)C(=O)O)cc1; Phe(4-CF3) = N[C@@H](Cc1ccc(C(F)(F)F)cc1)C(=O)O; dPhe(4-CF3) = N[C@H](Cc1ccc(C(F)(F)F)cc1)C(=O)O; Phe(4-COOH) = N[C@@H](Cc1ccc(C(=O)O)cc1)C(=O)O; dPhe(3,4-F2) = N[C@H](Cc1ccc(F)c(F)c1)C(=O)O; Bip = N[C@@H](Cc1ccc(-c2ccccc2)cc1)C(=O)O; dPhe(4-NH2) = Nc1ccc(C[C@@H](N)C(=O)O)cc1; Phe(4-Br) = N[C@@H](Cc1ccc(Br)cc1)C(=O)O; Phe(4-NH2) = Nc1ccc(C[C@H](N)C(=O)O)cc1; d(hPhe) = N[C@H](CCc1ccccc1)C(=O)O; 2Thi = N[C@@H](Cc1cccs1)C(=O)O; d2Thi = N[C@H](Cc1cccs1)C(=O)O; Suc = O=C(CCC(=O)[*:2])[*:1]; GABA = NCCCC(=O)O; βAla = NCCC(=O)O

How the values were obtained:
[1] = system: TNF-α (degradation of IkB in HeLa cells or A431 cells); experiment: Human cell-based assay: inhibition of TNF-α induced degradation of IkB; settings: for inhibition at 5 µM: read-out: Inhibition at Various Compound Concentrations, 5 μM; for inhibition at 10 µM: read-out: Inhibition at Various Compound Concentrations, 10 μM; for inhibition at 25 µM: 25 μM compound, read-out: Inhibition at Various Compound Concentrations, 25 μM
Protocol: We used a human cell-based assay to determine the TNF-α antagonistic activity of the compounds of this invention based upon the ability of the compounds to inhibit the degradation of IkB in those cells. The assay was performed on either HeLa cells or A431 cells.
On Day 1, wells of a 24-well tissue culture plate were seeded with cells that had been harvested from cultures in T-75 flasks by standard trypsin/EDTA treatment. The harvested cells were suspended in EMEM/10% FBS/P/S (100,000 HeLa cells/mL or 200,000 A431 cells/mL) and 1 mL aliquots were placed into each well. The cells were incubated overnight at 37° C. in a humidified CO2 incubator. On day 2, the cells were approximately 95% confluent.
Test and control compounds were diluted to a 1 mM solution by dilution in DMSO. The assay was run in Costar tubes. Into each tube was placed 2.5 or 5.0 μL of test compound (for testing 5 μM and 10 μM concentrations, respectively), 2.5 μL of 100× TNF-α solution (200 ng/mL TNF-α in EMEM containing 1μg/mL cycloheximide) and, for those tubes containing 2.5 μL of compound, an additional 2.5 μL of DMSO. To each tube was then added 0.5 mL of EMEM containing 1μg/mL cycloheximide. Negative control tubes contained either a) no compound, or b) no TNF-α. Tubes were then incubated for 30 minutes at room temperature.
Once incubation had begun, the media was aspirated from the cells in the 24-well plates. Sufficient EMEM/10% FBS/P/S containing 1 ug/mL cycloheximide was then added to cover the cells (approximately 3 mL) and the cells were retuned to the 37° C. humidified CO2 incubator until compound incubation was completed. The media was then aspirated from the cells, 0.2 mL of the compound solution was added and the cells re-incubated at 37° C. for 30 minutes. The plates were then placed on ice, the compound solution was aspirated from each well, and the cells washed once with 1 mL of cold PBS. Cells were then fixed with 500 μL of 3.7% formaldehyde in PBS (“fix solution”) for 20 minutes at room temperature. The fix solution was decanted and the cells permeabilized by 4× washing with 500 uL PBS/0.1% Triton X-100. After the final permeabilization wash, the cells were treated with 500 uL of Odyssey blocking buffer (OBB) and incubated at room temperature with shaking for 90 minutes.
The OBB was decanted and then to each well was then added 125 μL each of mouse anti-IkB CST#4814 (diluted 1:200 in OBB) and rabbit anti-beta-tubulin CST#2146 (diluted 1:200 in OBB). Plates were sealed with parafin and incubated overnight at room temperature with shaking.
On day 3, the antibody solution was removed from the cells and the cells were washed 5× with 0.5 mL PBST for five minutes each on a shaker. To each well was then aded 125 μL of a secondary antibody solution containing goat anti-mouse IgG-IRDye 800 and goat anti-rabbit IgG-IRDye (each diluted 1:500 in OBB+0.2% Tween 20). The plates were covered with aluminum foil and incubated for 1 hour at room temperature with shaking. The secondary antibody solution was removed and the cells washed 3× with 0.5 mL PBST for five minutes each on a shaker. Cells were then scanned by LICOR with the following settings: 700 intensity=6.0, 800 intensity=6.5; microplate2 settings with 3.0 mm offset; 169 resolution. LICOR values were fitted to an equation for a sigmoidal curve and IC50 values calculated from the fitted parameters. […] Blank cells indicate that the compound was not tested at that concentration. Certain compounds that were tested more than once and the values reflect the average of the multiple tests.

[2] = target: T1, TNFα / TNFα receptor (TNFα R1/Fc) (Homo sapiens, UniProt P01375); experiment: Inhibition of binding of TNFα to the TNFα receptor (plate ELISA competition); settings: Table 2
T1 construct: purchased R&D Systems
T1 sequence (P01375 77-233 limits assumed, species assumed): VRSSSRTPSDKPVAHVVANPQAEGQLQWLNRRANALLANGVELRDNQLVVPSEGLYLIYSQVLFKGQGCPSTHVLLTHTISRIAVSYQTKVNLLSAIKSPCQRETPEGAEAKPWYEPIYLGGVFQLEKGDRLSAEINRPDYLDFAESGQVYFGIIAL
How it was run: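 Compound dilutions were preincubated 30 min at RT with 8.33 nM TNFα R1/Fc in PBST with 2% DMSO, then added to wells coated with 15 nM TNFα for 30 min. Bound receptor was detected with HRP anti-human Fc and TMB, read as A450.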

[3] = 5 μM compound, HeLa or A431 cells
[4] = 10 μM compound, HeLa or A431 cells
[5] = read-out: Activity (IC50, inhibition of TNFα binding to TNFα R1/Fc)
[6] = Activity (IC50, inhibition of TNFα binding to TNFα R1/Fc)

| Compound | IC50 [2, 5] [µM] | also measured |
| --- | --- | --- |
| O=C1CCC(=O)N[C@@H](Cc2cccs2)C(=O)N[C@@H](Cc2ccc(-c3ccccc3)cc2)C(=O)N[C@H](Cc2ccccc2)C(=O)N[C@H](C(=O)O)Cc2ccc(cc2)N1 [Compound 43] ([2Thi][Bip][dF][Phe(4-NH2)]-OH; linker N-4 via Suc) | > 100 | inhibition at 25 µM ([1]; HeLa or A431 cells): < 10% |
| O=C1COc2ccc(cc2)C[C@@H](C(=O)NC2(C(=O)O)CC2)NC(=O)[C@H](Cc2ccccc2)NC(=O)[C@H](Cc2ccc(-c3ccccc3)cc2)NC(=O)[C@H](Cc2cccs2)N1 [Compound 344] |  | inhibition at 5 µM [1]: 10 to 50%; inhibition at 10 µM [1]: 50 to 80%; IC50 [2, 6]: < 10 µM |
| C[C@@H](NC(=O)[C@@H]1Cc2ccc(cc2)NC(=O)CCC(=O)N[C@H](Cc2cccs2)C(=O)N[C@@H](Cc2ccc(-c3ccccc3)cc2)C(=O)N[C@H](Cc2ccccc2)C(=O)N1)C(=O)O [Compound 24] ([d2Thi][Bip][dF][Phe(4-NH2)][dA]-OH; linker N-4 via Suc) | 30 to 100 | inhibition at 25 µM ([1]; HeLa or A431 cells): < 10% |
| O=C1COc2ccc(cc2)C[C@H](C(=O)O)NC(=O)[C@H](Cc2c[nH]c3ccccc23)NC(=O)[C@@H](Cc2ccc(-c3ccccc3)cc2)NC(=O)[C@H](Cc2ccncc2)N1 [Compound 732] | > 100 |  |
| O=C1CCC(=O)N[C@@H](Cc2cccs2)C(=O)N[C@@H](Cc2ccc(-c3ccccc3)cc2)C(=O)N[C@H](Cc2ccccc2)C(=O)N[C@@H](C(=O)O)Cc2ccc(cc2)N1 [Compound 499] ([2Thi][Bip][dF][dPhe(4-NH2)]-OH; linker N-4 via Suc) | > 100 |  |
| O=C1CCC(=O)N[C@H](Cc2cccs2)C(=O)N[C@@H](Cc2ccc(-c3ccccc3)cc2)C(=O)N[C@H](CCc2ccccc2)C(=O)N[C@H](C(=O)N[C@@H](Cc2ccccc2)C(=O)O)Cc2ccc(cc2)N1 [Compound 445] ([d2Thi][Bip][d(hPhe)][Phe(4-NH2)]F-OH; linker N-4 via Suc) | 10 to 30 |  |
| O=C1COc2ccc(cc2)C[C@@H](C(=O)NS(=O)(=O)c2ccccc2)NC(=O)[C@H](CCc2ccccc2)NC(=O)[C@@H](Cc2ccc(-c3ccccc3)cc2)NC(=O)[C@H](Cc2cccs2)N1 [Compound 483] | > 100 |  |
| O=C1N[C@H](Cc2ccccc2)C(=O)N[C@H](C(=O)O)Cc2ccc(cc2)NC(=O)[C@H](O)[C@@H](O)C(=O)N[C@H](Cc2cccs2)C(=O)NC1c1ccc(Br)cc1 (stereo partly drawn) [Compound 294] | 30 to 100 |  |
| O=C(O)[C@@H]1Cc2ccc(cc2)NC(=O)[C@H](O)[C@@H](O)C(=O)N[C@H](Cc2cccs2)C(=O)N[C@@H](Cc2ccc(-c3ccc(F)cc3)cc2)C(=O)N[C@H](Cc2ccccc2)C(=O)N1 [Compound 334] | 30 to 100 |  |
| O=C(O)C[C@@H]1Cc2ccc(cc2)NC(=O)[C@H](O)[C@@H](O)C(=O)N[C@H](Cc2cccs2)C(=O)N[C@@H](Cc2ccc(-c3ccccc3)cc2)C(=O)N[C@H](Cc2ccccc2)C(=O)N1 [Compound 309] | 10 to 30 |  |
| COc1ccccc1-c1ccc(C[C@@H]2NC(=O)[C@@H](CCc3ccccc3)NC(=O)CCC(=O)Nc3ccc(cc3)C[C@@H](C(=O)O)NC(=O)[C@@H](Cc3ccccc3)NC2=O)cc1 [Compound 167] ([d(hPhe)][Phe(4-(2-MeO-Ph))][dF][Phe(4-NH2)]-OH; linker N-4 via Suc) | > 100 |  |
| O=C1COc2ccc(cc2)C[C@@H](C(=O)N[C@H](CO)C(=O)O)NC(=O)[C@H](CCc2ccccc2)NC(=O)[C@@H](Cc2ccc(-c3ccccc3)cc2)NC(=O)[C@H](Cc2ccncc2)N1 [Compound 555] |  | IC50 [2, 6]: < 10 µM |
| O=C1COc2ccc(cc2)C[C@@H](C(=O)N[C@@H](CO)C(=O)O)NC(=O)[C@H](CCc2ccccc2)NC(=O)[C@@H](Cc2ccc(-c3ccccc3)cc2)NC(=O)[C@H](Cc2cccs2)N1 [Compound 486] |  | IC50 [2, 6]: < 10 µM |
| O=C1CCC(=O)N[C@H](Cc2ccc(F)c(F)c2)C(=O)N[C@@H](Cc2ccc(C(F)(F)F)cc2)C(=O)N[C@H](Cc2ccccc2)C(=O)N[C@H](C(=O)O)Cc2ccc(cc2)N1 [Compound 135] ([dPhe(3,4-F2)][Phe(4-CF3)][dF][Phe(4-NH2)]-OH; linker N-4 via Suc) | 30 to 100 |  |
| COc1ccc(C[C@@H]2NC(=O)[C@@H](Cc3cccs3)NC(=O)CCC(=O)Nc3ccc(cc3)C[C@@H](C(=O)O)NC(=O)[C@@H](Cc3ccccc3)NC2=O)cc1 [Compound 104] ([d2Thi]Y(Me)[dF][Phe(4-NH2)]-OH; linker N-4 via Suc) | > 100 |  |
| O=C1COc2ccc(cc2)C[C@@H](C(=O)O)NC(=O)[C@H](CCc2ccccc2)NC(=O)[C@@H](Cc2ccc(-c3ccncc3)cc2)NC(=O)[C@H](Cc2ccccn2)N1 [Compound 661] | 30 to 100 |  |

Further lines, with some results ahead:

| IC50 [2, 5] [µM] | Compound | also measured |
| --- | --- | --- |
| < 10 | O=C1COc2ccc(cc2)C[C@@H](C(=O)N[C@@H](Cc2ccccc2)C(=O)O)NC(=O)[C@@H](CCc2ccc(C(F)(F)F)cc2)NC(=O)[C@H](Cc2ccccc2)NC(=O)[C@@H](Cc2ccc(C(F)(F)F)cc2)N1 [Compound 157] | inhibition at 5 µM [1, 3]: 10 to 50%; inhibition at 10 µM [1, 4]: 50 to 80% |
| < 10 | O=C1CCNC(=O)c2ccc(cc2)C[C@@H](C(=O)O)NC(=O)[C@@H](Cc2ccccc2)NC(=O)[C@H](Cc2ccc(-c3ccccc3)cc2)NC(=O)[C@@H](CCc2ccccc2)N1 [Compound 248] ([βAla][d(hPhe)][Bip][dF][Phe(4-COOH)]-OH; lactam N-5) | inhibition at 5 µM [1, 3]: < 10%; inhibition at 10 µM [1, 4]: 10 to 50% |
| 10 to 30 | O=C1CCC(=O)N[C@H](Cc2ccc(C(F)(F)F)cc2)C(=O)N[C@@H](Cc2ccc(-c3ccccc3)cc2)C(=O)N[C@H](Cc2ccccc2)C(=O)N[C@H](C(=O)O)Cc2ccc(cc2)N1 [Compound 118] ([dPhe(4-CF3)][Bip][dF][Phe(4-NH2)]-OH; linker N-4 via Suc) | inhibition at 10 µM [1, 4]: 10 to 50% |
| < 10 | CC(=O)O[C@H]1C(=O)Nc2ccc(cc2)C[C@H](C(=O)N[C@@H](Cc2ccccc2)C(=O)O)NC(=O)[C@@H](Cc2ccccc2)NC(=O)[C@H](Cc2ccc(Br)cc2)NC(=O)[C@@H](Cc2cccs2)NC(=O)[C@@H]1OC(C)=O [Compound 410] ([d2Thi][Phe(4-Br)][dF][dPhe(4-NH2)]F-OH; linker N-4 via Tartaroyl(2R,3R-(OAc)2)) | inhibition at 5 µM [1, 3]: < 10%; inhibition at 10 µM [1, 4]: 10 to 50% |
| < 10 | O=C(O)CCCNC(=O)[C@@H]1Cc2ccc(cc2)NC(=O)CCC(=O)N[C@H](Cc2cccs2)C(=O)N[C@@H](Cc2ccc(-c3ccccc3)cc2)C(=O)N[C@H](Cc2ccccc2)C(=O)N1 [Compound 34] ([d2Thi][Bip][dF][Phe(4-NH2)][GABA]-OH; linker N-4 via Suc) | inhibition at 25 µM ([1]; HeLa or A431 cells): < 10% |
| < 10 | O=C1COc2ccc(cc2)C[C@@H](C(=O)O)NC(=O)[C@H](CCc2ccccc2)NC(=O)[C@@H](Cc2ccc(-c3ccccc3)cc2)NC(=O)[C@H](Cc2ccc(OCc3ccccc3)cc2)N1 [Compound 685] |  |
| < 10 | O=C1COc2ccc(cc2)C[C@@H](C(=O)O)NC(=O)[C@H](CCc2ccccc2)NC(=O)[C@@H](Cc2ccc(-c3ccccc3)cc2)NC(=O)[C@H](Cc2ccc([N+](=O)[O-])cc2)N1 [Compound 512] |  |
| < 10 | O=C(O)[C@H](Cc1ccccc1)NC(=O)[C@H]1Cc2ccc(cc2)NC(=O)[C@H](O)[C@@H](O)C(=O)N[C@H](Cc2cccs2)C(=O)N[C@@H](Cc2ccc(-c3ccccc3)cc2)C(=O)N[C@H](CCc2ccccc2)C(=O)N1 [Compound 429] |  |
